ChEMBL document CHEMBL1141825, “Chemistry of verongida sponges. 9.1 secondary metabolite composition of the caribbean sponge aplysina cauliformis” (J Nat Prod, 1999)
≈ marks a conversion by molar mass, not a printed value.

System: HeLa
Assay: Antiproliferative activity against human HeLa cells assessed as [3H]thymidine incorporation after 72 hrs by miniaturized, improved, nucleic acid precursor incorporation assay
Type: functional, cell-based

IC50: 50 µg/mL (≈ 95.2 µM)
SMILES: COC(=O)NCC(=O)CCNC(=O)C1=NO[C@]2(C=C(Br)C(OC)=C(Br)[C@@H]2O)C1
